Assay results taken from patent US20210115044A1, “TRICYCLIC HETEROCYCLE COMPOUNDS USEFUL AS HIV INTEGRASE INHIBITORS” (Merck Sharp & Dohme Corp., priority 2018, published 2021).
pIC50: −log10 of the molar value. Read-outs that look alike come from different tables or passages of the source.

System: HIV-1 (H9/IIIB strain)
Experiment: Multiple round HIV-1 infection assay in MT4-GFP cells (wild type cell assay, Viking)
Type: cell-based
Settings: MT4-GFP cells infected with HIV-1 H9/IIIB, inhibition of reproductive ratio R0, ~48 h and ~72 h post-infection
Protocol: The antiviral activity of the Examples herein was assessed in an assay that measures the rate of replication of HIV in cell culture, and performed according to the following procedure. HIV-1 replication was monitored using MT4-gag-GFP clone D3 (hereafter designated MT4-GFP), which are MT-4 cells modified to harbor a GFP reporter gene, the expression of which is dependent on the HIV-1 expressed proteins tat and rev. Productive infection of an MT4-GFP cell with HIV-1 results in GFP expression approximately 24 h post-infection. MT4-GFP cells were maintained at 37° C./5% CO2/90% relative humidity in RPMI 1640 supplemented with 10% fetal bovine serum, 100 U/ml penicillin/streptomycin, and 400 μg/ml G418 to maintain the reporter gene. For infections, MT4-GFP cells were placed in the same medium lacking G418 and infected overnight with HIV-1 (H9/IIIB strain) virus at an approximate multiplicity of infection of 0.01 in the same incubation conditions. Cells were then washed and re-suspended in either RPMI 1640 at 2×10^5 cells/mL (0% NHS condition) or 100% normal human serum (NHS) at 2×10^5 cells/mL (100% NHS condition). Compound plates were prepared by dispensing compounds dissolved in DMSO into wells of 384 well poly-D-lysine-coated plates (0.2 μl/well) using an ECHO acoustic dispenser. Each compound was tested in a 10-point serial 3-fold dilution (typical final concentrations: 1050 nM-0.05 nM for 0% NHS condition or 42 μM-2.13 nM for 100% NHS condition). Controls included no inhibitor (DMSO only) and a combination of three antiviral agents (efavirenz, indinavir, an in-house integrase strand transfer inhibitor at final concentrations of 4 μM each). Cells were added ([…]) to compound plates and the infected cells were maintained at 37° C./5% CO2/90% relative humidity.
Infected cells were quantified at two time points, ˜48 h and ˜72 h post-infection, by counting the number of green cells in each well using an Acumen eX3 scanner. The increase in the number of green cells over ˜24 h period gives the reproductive ratio, R0, which is typically 5-15 and has been shown experimentally to be in logarithmic phase (data not shown). Inhibition of R0 is calculated for each well, and IC50s determined by non-linear 4-parameter curve fitting.

[1] = 0% NHS condition (RPMI 1640), read-out: WILD TYPE CELL ASSAY Viking IP (0% NHS)
[2] = 100% normal human serum condition, read-out: WILD TYPE CELL ASSAY Viking IP (100% NHS)
[3] = Human immunodeficiency virus 1, IIIB, 0% NHS condition (RPMI 1640), read-out: WILD TYPE CELL ASSAY Viking IP (0% NHS)
[4] = Human immunodeficiency virus 1, IIIB, 100% normal human serum condition, read-out: WILD TYPE CELL ASSAY Viking IP (100% NHS)

SMILES | pIC50 [3] | pIC50 [1] | pIC50 [2] | pIC50 [4]
CC1N(C)C(=O)c2c(O)c(=O)c(C(=O)NCc3ccc(F)cc3F)c3n2C1(C)CC3O (single isomer, unassigned) [Compound 69] | – | 8.72 | 7.11 | –
CCN1CC2(COC)CC(O)c3c(C(=O)NCc4ccc(F)cc4F)c(=O)c(O)c(n32)C1=O (single isomer, unassigned) [Compound 57] | – | 8.51 | 5.00 | –
CC1C(O)c2c(C(=O)NCc3ccc(F)cc3F)c(=O)c(O)c3n2C1(C)CN(C)C3=O (single isomer, unassigned) [Compound 74] | – | 8.80 | 7.42 | –
CN1CC2(C)CC(O)c3c(C(=O)NCc4c(F)ccc(Cl)c4F)c(=O)c(O)c(n32)C1=O (single isomer, unassigned) [Compound 30] | – | 8.68 | 6.39 | –
CN1CC2(C)CC(O)c3c(C(=O)NCc4c(F)cc(F)cc4F)c(=O)c(O)c(n32)C1=O (stereo not shown) [Compound 27] | – | 8.68 | 7.54 | –
CC1N(C)C(=O)c2c(O)c(=O)c(C(=O)NCc3ccc(F)cc3F)c3n2C1(C)CC3O (single isomer, unassigned) [Compound 68] | – | 8.62 | 7.34 | –
CC1C(O)c2c(C(=O)NCc3ccc(F)cc3F)c(=O)c(O)c3n2C1(C)CN(C)C3=O (single isomer, unassigned) [Compound 73] | – | 8.64 | 6.41 | –
CCC12CC(O)c3c(C(=O)NCc4c(F)cc(F)cc4F)c(=O)c(O)c(n31)C(=O)N(C)C2 (single isomer, unassigned) [Compound 46] | – | 8.80 | 7.43 | –
CN1CC2(C)CC(O)c3c(C(=O)NCc4c(F)ccc(Cl)c4F)c(=O)c(O)c(n32)C1=O (single isomer, unassigned) [Compound 29] | 8.72 | – | 5.50 | –
CN1CC2(C)CC(O)c3c(C(=O)NCc4ccc(F)cc4)c(=O)c(O)c(n32)C1=O (single isomer, unassigned) [Compound 22] | – | 8.52 | 6.64 | –
CCN1CC2(COC)CC(O)c3c(C(=O)NCc4ccc(F)cc4F)c(=O)c(O)c(n32)C1=O (single isomer, unassigned) [Compound 59] | – | 8.49 | 6.98 | –
CC1N(C)C(=O)c2c(O)c(=O)c(C(=O)NCc3ccc(F)cc3F)c3n2C1(C)CC3O (single isomer, unassigned) [Compound 67] | – | 8.64 | 7.08 | –
CCC12CC(O)c3c(C(=O)NCc4ccc(F)cc4F)c(=O)c(O)c(n31)C(=O)N(C)C2 (single isomer, unassigned) [Compound 40] | – | 8.72 | 7.41 | –
CC1C(O)c2c(C(=O)NCc3ccc(F)cc3F)c(=O)c(O)c3n2C1(C)CN(C)C3=O (single isomer, unassigned) [Compound 76] | – | 8.60 | 6.63 | –
CCC12CC(O)c3c(C(=O)NCc4cccc(Cl)c4F)c(=O)c(O)c(n31)C(=O)N(C)C2 (single isomer, unassigned) [Compound 43] | – | 8.43 | 5.90 | –
CCC12CC(O)c3c(C(=O)NCc4ccc(F)cc4F)c(=O)c(O)c(n31)C(=O)N(C)C2 (single isomer, unassigned) [Compound 39] | – | 8.68 | 6.49 | –
CN1CC2(C)CC(O)c3c(C(=O)NCc4ccc(F)cc4)c(=O)c(O)c(n32)C1=O (stereo not shown) [Compound 24] | – | 8.92 | 6.70 | –
CC1C(O)c2c(C(=O)NCc3ccc(F)cc3F)c(=O)c(O)c3n2C1(C)CN(C)C3=O (single isomer, unassigned) [Compound 75] | – | 8.60 | 6.77 | –
CC1N(C)C(=O)c2c(O)c(=O)c(C(=O)NCc3ccc(F)cc3F)c3n2C1(C)CC3O (single isomer, unassigned) [Compound 70] | – | 8.92 | 7.58 | –
CCN1CC2(COC)CC(O)c3c(C(=O)NCc4c(F)cc(F)cc4F)c(=O)c(O)c(n32)C1=O (stereo not shown) [Compound 64] | – | 8.54 | 5.56 | –
CN1CC2(C)CC(O)c3c(C(=O)NCc4c(F)ccc(Cl)c4F)c(=O)c(O)c(n32)C1=O (stereo not shown) [Compound 32] | – | 8.68 | 7.25 | –
CCC12CC(O)c3c(C(=O)NCc4ccc(F)cc4F)c(=O)c(O)c(n31)C(=O)N(C)C2 (single isomer, unassigned) [Compound 38] | – | 8.92 | 7.49 | –
CCC12CC(O)c3c(C(=O)NCc4c(F)ccc(F)c4F)c(=O)c(O)c(n31)C(=O)N(C)C2 (stereo not shown) [Compound 52] | – | 8.57 | 6.82 | –
CCC12CC(O)c3c(C(=O)NCc4c(F)ccc(Cl)c4F)c(=O)c(O)c(n31)C(=O)N(C)C2 (stereo not shown) [Compound 56] | – | 8.47 | 6.05 | –
CN1CC2(C)CC(O)c3c(C(=O)NCc4cccc(Cl)c4F)c(=O)c(O)c(n32)C1=O (stereo not shown) [Compound 36] | – | 8.68 | 7.22 | –
CCC12CC(O)c3c(C(=O)NCc4ccc(F)cc4F)c(=O)c(O)c(n31)C(=O)N(C)C2 (single isomer, unassigned) [Compound 37] | – | 8.66 | 6.26 | –
CC1C(O)c2c(C(=O)NCc3ccc(F)cc3F)c(=O)c(O)c3n2C1(C)CN(C)C3=O (single isomer, unassigned) [Compound 80] | – | 8.55 | 6.72 | –
CCN1CC2(COC)CC(O)c3c(C(=O)NCc4c(F)cc(F)cc4F)c(=O)c(O)c(n32)C1=O (single isomer, unassigned) [Compound 62] | – | 8.62 | 7.22 | –
CC1C(O)c2c(C(=O)NCc3ccc(F)cc3F)c(=O)c(O)c3n2C1(C)CN(C)C3=O (single isomer, unassigned) [Compound 77] | – | 8.48 | 5.35 | –
CC1N(C)C(=O)c2c(O)c(=O)c(C(=O)NCc3ccc(F)cc3F)c3n2C1(C)CC3O (single isomer, unassigned) [Compound 65] | – | 8.77 | 6.97 | –

More lines, main results first:

pIC50 [3] | SMILES | pIC50 [1] | pIC50 [2] | pIC50 [4]
8.96 | CCC12CC(O)c3c(C(=O)NCc4c(F)cc(F)cc4F)c(=O)c(O)c(n31)C(=O)N(C)C2 (single isomer, unassigned) [Compound 45] | – | 7.75 | –
8.59 | CCC12CC(O)c3c(C(=O)NCc4c(F)ccc(Cl)c4F)c(=O)c(O)c(n31)C(=O)N(C)C2 (single isomer, unassigned) [Compound 53] | – | 5.36 | –
8.43 | CN1CC2(C)CC(O)c3c(C(=O)NCc4ccc(F)cc4)c(=O)c(O)c(n32)C1=O (single isomer, unassigned) [Compound 21] | – | 6.03 | –
8.64 | CCN1CC2(COC)CC(O)c3c(C(=O)NCc4c(F)cc(F)cc4F)c(=O)c(O)c(n32)C1=O (single isomer, unassigned) [Compound 61] | – | – | 7.02
8.66 | CCC12CC(O)c3c(C(=O)NCc4c(F)ccc(Cl)c4F)c(=O)c(O)c(n31)C(=O)N(C)C2 (stereo not shown) [Compound 55] | – | 7.03 | –
8.59 | CCC12CC(O)c3c(C(=O)NCc4c(F)ccc(F)c4F)c(=O)c(O)c(n31)C(=O)N(C)C2 (single isomer, unassigned) [Compound 49] | – | 5.99 | –
8.64 | CCC12CC(O)c3c(C(=O)NCc4c(F)cc(F)cc4F)c(=O)c(O)c(n31)C(=O)N(C)C2 (stereo not shown) [Compound 47] | – | 5.84 | –
8.77 | CN1CC2(C)CC(O)c3c(C(=O)NCc4c(F)ccc(Cl)c4F)c(=O)c(O)c(n32)C1=O (stereo not shown) [Compound 31] | – | 6.57 | –
8.72 | CN1CC2(C)CC(O)c3c(C(=O)NCc4ccc(F)cc4)c(=O)c(O)c(n32)C1=O (stereo not shown) [Compound 23] | – | – | 6.92
8.52 | CN1CC2(C)CC(O)c3c(C(=O)NCc4cccc(Cl)c4F)c(=O)c(O)c(n32)C1=O (single isomer, unassigned) [Compound 33] | – | 5.92 | –
8.77 | CCC12CC(O)c3c(C(=O)NCc4c(F)ccc(F)c4F)c(=O)c(O)c(n31)C(=O)N(C)C2 (stereo not shown) [Compound 51] | – | 7.49 | –
